Reference: ChEMBL document CHEMBL4665755, “Discovery of a phenylpyrazole amide ROCK inhibitor as a tool molecule for in vivo studies” (Bioorg Med Chem Lett, 2020)

Experiments:
[1] = Metabolic stability in human liver microsomes assessed as parent compound remaining at 0.5 uM after 10 mins; assay type: ADME, Microsome; conditions: read-out: Stabilty
[2] = Cmax in mouse at 10 mg/kg, po; assay type: ADME, organism-based; design: route oral, dose 10 mg/kg; conditions: in vivo
[3] = Permeability of the compound at pH 7.4 by PAMPA; assay type: ADME; conditions: read-out: permeability
[4] = AUC in mouse at 10 mg/kg, po; assay type: ADME, organism-based; design: dose 10 mg/kg; conditions: in vivo
[5] = Permeability of the compound at pH 5.5 by PAMPA; assay type: ADME; conditions: read-out: permeability
[6] = Metabolic stability in human liver microsomes assessed as half life; assay type: ADME, Microsome
[7] = Cmax in mouse at 2 mg/kg, po; assay type: ADME, organism-based; design: route oral, dose 2 mg/kg; conditions: in vivo
[8] = AUC in mouse at 2 mg/kg, po; assay type: ADME, organism-based; design: dose 2 mg/kg; conditions: in vivo

Question: Which remaining at 10 min, 0.5 µM [1] does the source give for COc1cccc([C@@H](C)NC(=O)c2ccc(-c3cn[nH]c3)cc2OC)c1 here?
Answer: 49%

Question: Which remaining at 10 min, 0.5 µM [1] does the source give for COc1cccc([C@@H](C)NC(=O)c2ccc(-c3cn[nH]c3)c(OC)c2)c1 here?
Answer: 32%

Question: With COc1cccc(CNC(=O)c2ccc(-c3cn[nH]c3)c(OC)c2)c1 as the molecule, how does the remaining at 10 min, 0.5 µM [1] read?
Answer: 49%

Question: What does the source list for COc1cc(C(=O)N[C@H](CO)c2ccccc2)ccc1-c1cn[nH]c1?
Answer: Cmax [2]: 21 µM; remaining at 10 min, 0.5 µM [1]: 87%; Papp [3]: 11 ×10⁻⁶ cm/s; AUC [4]: 90 µM·h; Papp [5]: 10.5 ×10⁻⁶ cm/s

Question: Which remaining at 10 min, 0.5 µM [1] does the source give for COc1cccc([C@@H](C)NC(=O)c2ccc(-c3cn[nH]c3)c(Cl)c2)c1 here?
Answer: 59%

Question: For COc1cccc([C@@H](C)NC(=O)c2ccc(-c3cn[nH]c3)c(OC)c2F)c1, which remaining at 10 min, 0.5 µM [1] is on record?
Answer: 57%

Question: For COc1cccc([C@@H](C)NC(=O)c2ccc(-c3cn[nH]c3)c(C)c2)c1, which Cmax [2] is on record?
Answer: 12 µM

Question: What about the remaining at 10 min, 0.5 µM [1] of the same molecule?
Answer: 74%

Question: And the Papp [3]?
Answer: 20 ×10⁻⁶ cm/s

Question: What about the AUC [4] of the same molecule?
Answer: 35 µM·h

Question: And the Papp [5]?
Answer: 29 ×10⁻⁶ cm/s

Question: Which remaining at 10 min, 0.5 µM [1] does the source give for COc1cccc([C@@H](C)NC(=O)c2ccc(-c3cn[nH]c3)c(C(F)(F)F)c2)c1 here?
Answer: 44%

Question: Which remaining at 10 min, 0.5 µM [1] does the source give for COc1cc(C(=O)N[C@H](CN)c2ccccc2)ccc1-c1cn[nH]c1 here?
Answer: 93%

Question: Which remaining at 10 min, 0.5 µM [1] does the source give for COc1cccc([C@@H](C)NC(=O)c2ccc(-c3cn[nH]c3)c(C#N)c2)c1 here?
Answer: 67%

Question: Which half-life [6] does the source give for COc1cc(NC(=O)[C@H](N)CCc2ccccc2)ccc1-c1cn[nH]c1 here?
Answer: 41 min

Question: And the Cmax [2]?
Answer: 28 µM

Question: What about the Papp [3] of the same molecule?
Answer: 74 ×10⁻⁶ cm/s

Question: What about the AUC [4] of the same molecule?
Answer: 140 µM·h

Question: And the Papp [5]?
Answer: 45 ×10⁻⁶ cm/s

Question: Which Cmax [2] does the source give for COc1cc(C(=O)N[C@H](C)c2c(F)cccc2F)ccc1-c1cn[nH]c1 here?
Answer: 23 µM

Question: What about the remaining at 10 min, 0.5 µM [1] of the same molecule?
Answer: 79%

Question: And the Papp [3]?
Answer: 61 ×10⁻⁶ cm/s

Question: What about the AUC [4] of the same molecule?
Answer: 140 µM·h

Question: What about the Papp [5] of the same molecule?
Answer: 61 ×10⁻⁶ cm/s

Question: Which half-life [6] does the source give for COc1cc(NC(=O)[C@@H](N)CCc2ccccc2)ccc1-c1cn[nH]c1 here?
Answer: 62 min

Question: With COc1cc(C(=O)N[C@H](C)c2ccccc2F)ccc1-c1cn[nH]c1 as the molecule, how does the remaining at 10 min, 0.5 µM [1] read?
Answer: 73%

Question: For COc1cc(NC(=O)Cc2ccccc2Cl)ccc1-c1cn[nH]c1, which half-life [6] is on record?
Answer: 36 min

Question: For COc1cc(C(=O)N[C@@H](c2ccccc2F)C(C)(C)O)ccc1-c1cn[nH]c1, which Cmax [7] is on record?
Answer: 1.3 µM

Question: What about the remaining at 10 min, 0.5 µM [1] of the same molecule?
Answer: 92%

Question: What about the AUC [8] of the same molecule?
Answer: 5 µM·h

Question: What about the Papp [3] of the same molecule?
Answer: 44 ×10⁻⁶ cm/s

Question: What about the Papp [5] of the same molecule?
Answer: 52 ×10⁻⁶ cm/s

Question: For COc1cc(NC(=O)[C@H](N)Cc2ccc(Cl)c(Cl)c2)ccc1-c1cn[nH]c1, which half-life [6] is on record?
Answer: 31 min

Question: Which half-life [6] does the source give for COc1cc(NC(=O)[C@H](N)c2ccccc2Cl)ccc1-c1cn[nH]c1 here?
Answer: 20 min

Question: Which half-life [6] does the source give for COc1cc(NC(=O)[C@H](O)c2ccccc2Cl)ccc1-c1cn[nH]c1 here?
Answer: 15 min

Question: For CCc1cc(C(=O)N[C@H](C)c2cccc(OC)c2)ccc1-c1cn[nH]c1, which remaining at 10 min, 0.5 µM [1] is on record?
Answer: 38%

Question: For COc1cc(C(=O)N[C@H](CO)c2c(F)cccc2F)ccc1-c1cn[nH]c1, which remaining at 10 min, 0.5 µM [1] is on record?
Answer: 90%
